From patent US10888575B2, “Combination comprising zidovudine and a carbapenem” (HELPERBY THERAPEUTICS LIMITED, priority 2016, dated 2021)
Read-outs that look alike come from different tables or passages of the source.

How the values were obtained:
Format in all cases: cell-based
[1] = test system: log phase NDM-1 Klebsiella pneumoniae subsp. pneumoniae (BAA2472); assay: chequerboard method, zidovudine and meropenem; design: scale not given here
Protocol: The chequerboard method used in Example 1 followed the protocols detailed in Antimicrob Chemo (2013) 68, 374-384.
Log phase growth of NDM-1 Klebsiella pneumoniae subsp. pneumoniae was carried out as described in the art. Zidovudine and meropenem were obtained from commercially available sources. The effects of the combination of the present invention were examined by calculating the fractional inhibitory concentration index (FICI) of each combination, as follows:
(MIC of drug A, tested in combination)/(MIC of drug A, tested alone)+(MIC of drug B, tested in combination)/(MIC of drug B, tested alone).
The interaction of the combination was defined as showing synergy if the FICI was ≤0.5, no interaction if the FICI was >0.5 but <4.0 and antagonism if the FICI was >4.0.

[2] = test system: log phase NDM-1 Escherichia coli (BAA2469); assay: time-kill, zidovudine and meropenem; conditions: 24 hours
Protocol: (§1) As described hereinabove, time-kill methods are another accepted test for ascertaining the presence or absence of synergy, and involve comparing the dynamic effect of a drug combination with each drug alone when assessing the effect on bacterial log or stationary-growth over time.
(§2) • 1. Bacterial strain used: BAA2471 or BAA2469 strain of Escherichia coli • 2. Growth of bacteria: Log phase growth of BAA2471 or BAA2469 was carried out according to known methods in the art, e.g. SOP R-005-00 Log Phase Growth of Bacteria. • 3. Compound preparation: zidovudine and mereopenem were both obtained from commercial sources (e.g. Sigma-Aldrich). • 4. The overnight culture was diluted with nutrient broth (Oxoid) to 10^7 CFU/ml and 280 μl and 290 μl of the culture was added to each combination well and drug respectively, to make the final concentration of 300 μl. • 5. Incubation of the compounds with the bacterial suspension was carried out for 24 hours. At 0, 2, 4, 7 and 24 hours, CFU counts were performed to measure the kill effects of the drug combination. Results and Discussion

[3] = test system: log phase NDM-1 Escherichia coli (BAA2471); assay: time-kill, zidovudine and meropenem; conditions: 24 hours
Protocol: as §1, §2

[4] = test system: log phase NDM-1 Klebsiella pneumoniae (BAA2470); assay: chequerboard method, zidovudine, meropenem and colistimethate sodium; design: chequerboard reading: scale not given here
Protocol: The chequerboard method used in Example 1 was followed, according to the protocols detailed in Antimicrob Chemo (2013) 68, 374-384. The bacterial strain of NDM-1 Klebsiella pneumoniae was BAA2470. Log phase growth of BAA2470 was carried out as described in the art. Zidovudine, meropenem and colistimethate sodium were obtained from commercially available sources. The effects of the triple combination of the present invention were examined by calculating the MIC for each drug alone and in combination.

[5] = test system: log phase NDM-1 K. pneumoniae subsp. pneumoniae (BAA2470); assay: time-kill, zidovudine, meropenem and CMS
Protocol: as §2, with “BAA2470” for “BAA2471 or BAA2469”, “K. pneumoniae subsp. pneumoniae” for “Escherichia coli”, “zidovudine, mereopenem” for “zidovudine”, “colistimethate sodium” for “mereopenem”, “were” for “were both”, “combination.” for “combination. Results and Discussion”

[6] = zidovudine added at 0.25 μg/ml to the meropenem and CMS combination

`C[C@@H](O)[C@H]1C(=O)N2C(C(=O)O)=C(S[C@@H]3CN[C@H](C(=O)N(C)C)C3)[C@H](C)[C@H]12` [meropenem] was tested, and the chequerboard reading ([1]; zidovudine 0, meropenem 0.25) was 0.40, the chequerboard reading ([1]; zidovudine 0, meropenem 0.5) was 0.41 and the chequerboard reading ([1]; zidovudine 0, meropenem 1) was 0.45. The chequerboard reading ([1]; zidovudine 0, meropenem 2) was 0.35, the chequerboard reading ([1]; zidovudine 0, meropenem 4) was 0.34 and the chequerboard reading ([1]; zidovudine 0, meropenem 8) was 0.44. For the same compound, the chequerboard reading ([1]; zidovudine 0, meropenem 16) was 0.44, the chequerboard reading ([1]; zidovudine 0, meropenem 32) was 0.25 and the chequerboard reading ([1]; zidovudine 0, meropenem 64) was 0.21. For the same compound, the chequerboard reading ([1]; zidovudine 0, meropenem 128) was 0.20, the chequerboard reading ([1]; zidovudine 0, meropenem 256) was 0.05 and the time-kill effect ([2]; meropenem alone 8 mg/L) was “little or no effect”. For the same compound, the time-kill effect ([3]; meropenem alone 256 mg/L) was “little or no effect”, the MIC ([4]; Klebsiella pneumoniae, BAA2470) was 256 µg/mL and the MIC ([4]; Klebsiella pneumoniae, BAA2470, zidovudine added at 0.5 μg/ml to the meropenem and CMS combination, read-out: MIC) was 64 µg/mL. For the same compound, the MIC ([4]; Klebsiella pneumoniae, BAA2470, zidovudine added at 1 μg/ml to the meropenem and CMS combination, read-out: MIC) was 16 µg/mL, the chequerboard reading ([4]; meropenem 8, CMS 0, zidovudine 0 μg/ml) was 0.69 and the chequerboard reading ([4]; meropenem 16, CMS 0, zidovudine 0 μg/ml) was 0.70. It also gave a chequerboard reading ([4]; meropenem 32, CMS 0, zidovudine 0 μg/ml) of 0.63, a chequerboard reading ([4]; meropenem 64, CMS 0, zidovudine 0 μg/ml) of 0.55 and a chequerboard reading ([4]; meropenem 128, CMS 0, zidovudine 0 μg/ml) of 0.36. For the same compound, the chequerboard reading ([4]; meropenem 256, CMS 0, zidovudine 0 μg/ml) was 0.05, the chequerboard reading ([4]; meropenem 512, CMS 0, zidovudine 0 μg/ml) was 0.05 and the MIC [4, 6] was “remained the same”. For the same compound, the “kill of the bacterium” value ([5]; meropenem alone 64 μg/ml, at 4 hours, followed by a regrowth) was “about 3 logs”.

With `Cc1cn([C@H]2C[C@H](N=[N+]=[N-])[C@@H](CO)O2)c(=O)[nH]c1=O` [zidovudine, 1-[(2R,4S, 5S)-4-Azido-5-(hydroxymethyl)oxolan-2-yl]-5-methylpyrimidine-2,4-dione] the chequerboard reading ([1]; zidovudine 0.5, meropenem 0) was 0.16, the chequerboard reading ([1]; zidovudine 1, meropenem 0) was 0.22 and the chequerboard reading ([1]; zidovudine 2, meropenem 0) was 0.10. For the same compound, the chequerboard reading ([1]; zidovudine 4, meropenem 0) was 0.23, the chequerboard reading ([1]; zidovudine 8, meropenem 0) was 0.23 and the chequerboard reading ([1]; zidovudine 16, meropenem 0) was 0.04. For the same compound, the chequerboard reading ([1]; zidovudine 32, meropenem 0) was 0.26, the time-kill effect ([2]; zidovudine alone 16 mg/L) was “little or no effect” and the time-kill effect ([3]; zidovudine alone 32 mg/L) was “little or no effect”. The chequerboard reading ([4]; meropenem 0, CMS 0, zidovudine 0.25 μg/ml) was 0.31, the chequerboard reading ([4]; meropenem 0, CMS 0, zidovudine 0.50 μg/ml) was 0.17 and the chequerboard reading ([4]; meropenem 0, CMS 0, zidovudine 1 μg/ml) was 0.11. For the same compound, the chequerboard reading ([4]; meropenem 0, CMS 0, zidovudine 2 μg/ml) was 0.08 and the “kill of the bacterium” value ([5]; zidovudine alone 16 μg/ml, at 2 hours, then growth occurred) was “one”.

In the case of colistimethate sodium, the chequerboard reading ([4]; meropenem 0, CMS 0.031, zidovudine 0 μg/ml) is reported as 0.66, the chequerboard reading ([4]; meropenem 0, CMS 0.063, zidovudine 0 μg/ml) is reported as 0.61 and the chequerboard reading ([4]; meropenem 0, CMS 0.125, zidovudine 0 μg/ml) is reported as 0.58. For the same compound, the chequerboard reading ([4]; meropenem 0, CMS 0.25, zidovudine 0 μg/ml) was 0.50, the chequerboard reading ([4]; meropenem 0, CMS 0.5, zidovudine 0 μg/ml) was 0.51 and the chequerboard reading ([4]; meropenem 0, CMS 1, zidovudine 0 μg/ml) was 0.47. It also gave a chequerboard reading ([4]; meropenem 0, CMS 2, zidovudine 0 μg/ml) of 0.46, a chequerboard reading ([4]; meropenem 0, CMS 4, zidovudine 0 μg/ml) of 0.42 and a chequerboard reading ([4]; meropenem 0, CMS 8, zidovudine 0 μg/ml) of 0.42. The chequerboard reading ([4]; meropenem 0, CMS 16, zidovudine 0 μg/ml) was 0.23, the chequerboard reading ([4]; meropenem 0, CMS 32, zidovudine 0 μg/ml) was 0.05 and the MIC ([4]; without zidovudine) was 32 µg/mL. The MIC [4, 6] was 8 µg/mL, the MIC ([4]; zidovudine added at 0.5 μg/ml to the meropenem and CMS combination) was 0.5 µg/mL and the MIC ([4]; zidovudine added at 1 μg/ml to the meropenem and CMS combination) was 0.25 µg/mL. For the same compound, the time-kill effect ([5]; CMS alone 4 ug/ml) was “no effect”.
